Experimental findings from ChEMBL document CHEMBL1933028, “Discovery of cyclic amine-substituted benzoic acids as PPARα agonists” (Bioorg Med Chem Lett, 2012) are described below.

Data set [1] addresses T1, Peroxisome proliferator-activated receptor gamma (Canis lupus familiaris, UniProt Q4U3Q4).
T1 sequence (Q4U3Q4 whole entry): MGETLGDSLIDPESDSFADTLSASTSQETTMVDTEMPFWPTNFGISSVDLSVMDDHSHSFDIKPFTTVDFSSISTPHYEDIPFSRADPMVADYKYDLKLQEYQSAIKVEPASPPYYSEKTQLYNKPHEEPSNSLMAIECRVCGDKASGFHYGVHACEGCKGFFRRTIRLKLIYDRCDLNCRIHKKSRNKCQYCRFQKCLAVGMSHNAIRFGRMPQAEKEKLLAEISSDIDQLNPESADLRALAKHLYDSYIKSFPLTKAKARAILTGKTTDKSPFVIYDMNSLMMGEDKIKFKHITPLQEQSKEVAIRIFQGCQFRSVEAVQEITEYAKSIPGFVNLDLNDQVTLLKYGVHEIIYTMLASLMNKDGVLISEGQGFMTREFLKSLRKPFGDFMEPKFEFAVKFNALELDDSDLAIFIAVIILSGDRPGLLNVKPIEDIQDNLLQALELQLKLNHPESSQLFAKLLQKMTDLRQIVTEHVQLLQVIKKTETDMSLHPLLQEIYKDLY
As to the kind of experiment: Agonist activity at dog PPARgamma. The data set is classed as functional.

Data set [2] deals with T2, Peroxisome proliferator-activated receptor gamma (Rattus norvegicus, UniProt O88275).
T2 sequence (O88275 whole entry): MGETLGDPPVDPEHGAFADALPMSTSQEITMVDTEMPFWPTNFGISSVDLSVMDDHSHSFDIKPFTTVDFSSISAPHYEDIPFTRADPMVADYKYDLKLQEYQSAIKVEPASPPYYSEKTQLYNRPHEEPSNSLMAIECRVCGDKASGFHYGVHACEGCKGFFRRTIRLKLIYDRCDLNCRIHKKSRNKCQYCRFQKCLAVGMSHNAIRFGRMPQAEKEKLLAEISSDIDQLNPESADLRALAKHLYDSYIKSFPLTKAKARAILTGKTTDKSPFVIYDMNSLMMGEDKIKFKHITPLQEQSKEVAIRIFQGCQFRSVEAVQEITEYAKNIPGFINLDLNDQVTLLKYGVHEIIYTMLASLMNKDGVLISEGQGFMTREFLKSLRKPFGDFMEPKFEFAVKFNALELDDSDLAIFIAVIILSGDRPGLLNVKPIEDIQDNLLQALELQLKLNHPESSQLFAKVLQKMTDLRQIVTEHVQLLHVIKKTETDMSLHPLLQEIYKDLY
As to the kind of experiment: Agonist activity at rat PPARgamma. In kind it is functional.

For data set [3], the target named is T3, Peroxisome proliferator-activated receptor delta (Mus musculus, UniProt P35396).
T3 sequence (P35396 whole entry): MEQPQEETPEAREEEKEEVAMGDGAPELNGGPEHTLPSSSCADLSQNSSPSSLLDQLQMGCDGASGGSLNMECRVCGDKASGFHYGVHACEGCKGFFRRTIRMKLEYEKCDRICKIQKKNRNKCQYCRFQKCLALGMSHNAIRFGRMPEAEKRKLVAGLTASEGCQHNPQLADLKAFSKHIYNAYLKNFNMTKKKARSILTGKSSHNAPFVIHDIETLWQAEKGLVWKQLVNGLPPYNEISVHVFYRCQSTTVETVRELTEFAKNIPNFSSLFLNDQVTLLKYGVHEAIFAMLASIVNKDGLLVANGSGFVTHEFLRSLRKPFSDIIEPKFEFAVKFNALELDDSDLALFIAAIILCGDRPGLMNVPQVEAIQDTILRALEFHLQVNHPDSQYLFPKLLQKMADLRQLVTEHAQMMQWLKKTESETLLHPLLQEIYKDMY
The experiment in a line: Agonist activity at mouse PPARdelta. In kind it is functional.

Data set [4] in a line: Cmax in rat at 1 mg/kg, po. Set-up: dose 1 mg/kg, route oral. In kind it is ADME, organism-based. Conditions: in vivo.
Data set [5] is described as follows: Oral bioavailability in rat at 1 mg/kg. The data set is classed as ADME, organism-based. Conditions: in vivo.
Data set [6] relates to Canis familiaris. The experiment in a line: Antidyslipidemic activity in high-fat diet fed dog assessed as decrease in serum triglyceride level at 0.003 mg/kg, po administered QD for 1 week (reference value: 98 +/- 4 mg/dL). In kind it is functional, Canis lupus familiaris.
Data set [7] relates to Canis familiaris. As to the kind of experiment: Antidyslipidemic activity in high-fat diet fed dog assessed as decrease in free fatty acid at 0.01 mg/kg, po administered QD for 1 week (reference value: 0.624 +/- 0.057 mEq/L). In kind it is functional, Canis lupus familiaris.
In data set [8] the test system is Canis familiaris. As to the kind of experiment: Antidyslipidemic activity in high-fat diet fed dog assessed as decrease in free fatty acid at 0.03 mg/kg, po administered QD for 1 week (reference value: 0.624 +/- 0.057 mEq/L). The data set is classed as functional, Canis lupus familiaris.
For data set [9], the system named is Canis familiaris. The experiment in a line: Toxicity in high-fat diet fed dog assessed as change in body weight at 0.01 mg/kg, po administered QD for 1 week (reference value: 14.8 +/- 0.7 kg). Set-up: dose 0.01 mg/kg, route oral. In kind it is organism-based, Canis lupus familiaris. Conditions: in vivo, 168 h.
For data set [10], the system named is Canis familiaris. The experiment in a line: Toxicity in high-fat diet fed dog assessed as change in body weight at 0.03 mg/kg, po administered QD for 1 week (reference value: 14.8 +/- 0.7 kg). In kind it is organism-based, Canis lupus familiaris. Set-up: dose 0.03 mg/kg, route oral. The note with it: in vivo, 168 h.

Take `Cc1nc(-c2ccc(Cl)cc2)sc1C(=O)N[C@H]1CCCN(c2cccc(C(=O)O)c2)C1`: the EC50 in data set [1] is 11 µM; in [2], 13 µM; in [3], 6.6 µM. In [4], this molecule yielded a Cmax of 316 ng/mL. This molecule also displayed a bioavailability in data set [5] of 47.6%. Also, the Activity in the data set with Canis familiaris [6] came to 64 mg/dL; in the data set on Canis familiaris [7], 0.651 mEq/L; in the data set with Canis familiaris [8] it was 0.576 mEq/L; in the data set with Canis familiaris [9], 14.8 kg; in the data set on Canis familiaris [10], 14.8 kg.
